Laboratory results reported in patent publication US11866450B2, “Modulators of Cystic Fibrosis Transmembrane Conductance regulator, pharmaceutical compositions, methods of treatment, and process for making the modulators” (priority 2018, dated 2024).

Target: CFTR-mediated chloride transport (Homo sapiens, UniProt P13569)
Type: cell-based
Conditions: enteroid cells incubated with test compound 18-24 hours, acute 10 μM forskolin and 300 nM Compound III; for Max. Activity: % of chloride transport with 3 μM Compound A, 3 μM Compound II and 300 nM acute Compound III triple combination control
Summary of the method: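 Human intestinal enteroid cells incubated with compound 18–24 h at 37° C., then membrane potential dye (FLIPR) read 15 min after chloride-free stimulation with 10 μM forskolin, 100 μM IBMX and 300 nM Compound III. AUC expressed as % of triple-combination control (3 μM Compound A, 3 μM Compound II, 300 nM Compound III).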

Chain of CFTR-mediated chloride transport (P13569 whole entry, looked up): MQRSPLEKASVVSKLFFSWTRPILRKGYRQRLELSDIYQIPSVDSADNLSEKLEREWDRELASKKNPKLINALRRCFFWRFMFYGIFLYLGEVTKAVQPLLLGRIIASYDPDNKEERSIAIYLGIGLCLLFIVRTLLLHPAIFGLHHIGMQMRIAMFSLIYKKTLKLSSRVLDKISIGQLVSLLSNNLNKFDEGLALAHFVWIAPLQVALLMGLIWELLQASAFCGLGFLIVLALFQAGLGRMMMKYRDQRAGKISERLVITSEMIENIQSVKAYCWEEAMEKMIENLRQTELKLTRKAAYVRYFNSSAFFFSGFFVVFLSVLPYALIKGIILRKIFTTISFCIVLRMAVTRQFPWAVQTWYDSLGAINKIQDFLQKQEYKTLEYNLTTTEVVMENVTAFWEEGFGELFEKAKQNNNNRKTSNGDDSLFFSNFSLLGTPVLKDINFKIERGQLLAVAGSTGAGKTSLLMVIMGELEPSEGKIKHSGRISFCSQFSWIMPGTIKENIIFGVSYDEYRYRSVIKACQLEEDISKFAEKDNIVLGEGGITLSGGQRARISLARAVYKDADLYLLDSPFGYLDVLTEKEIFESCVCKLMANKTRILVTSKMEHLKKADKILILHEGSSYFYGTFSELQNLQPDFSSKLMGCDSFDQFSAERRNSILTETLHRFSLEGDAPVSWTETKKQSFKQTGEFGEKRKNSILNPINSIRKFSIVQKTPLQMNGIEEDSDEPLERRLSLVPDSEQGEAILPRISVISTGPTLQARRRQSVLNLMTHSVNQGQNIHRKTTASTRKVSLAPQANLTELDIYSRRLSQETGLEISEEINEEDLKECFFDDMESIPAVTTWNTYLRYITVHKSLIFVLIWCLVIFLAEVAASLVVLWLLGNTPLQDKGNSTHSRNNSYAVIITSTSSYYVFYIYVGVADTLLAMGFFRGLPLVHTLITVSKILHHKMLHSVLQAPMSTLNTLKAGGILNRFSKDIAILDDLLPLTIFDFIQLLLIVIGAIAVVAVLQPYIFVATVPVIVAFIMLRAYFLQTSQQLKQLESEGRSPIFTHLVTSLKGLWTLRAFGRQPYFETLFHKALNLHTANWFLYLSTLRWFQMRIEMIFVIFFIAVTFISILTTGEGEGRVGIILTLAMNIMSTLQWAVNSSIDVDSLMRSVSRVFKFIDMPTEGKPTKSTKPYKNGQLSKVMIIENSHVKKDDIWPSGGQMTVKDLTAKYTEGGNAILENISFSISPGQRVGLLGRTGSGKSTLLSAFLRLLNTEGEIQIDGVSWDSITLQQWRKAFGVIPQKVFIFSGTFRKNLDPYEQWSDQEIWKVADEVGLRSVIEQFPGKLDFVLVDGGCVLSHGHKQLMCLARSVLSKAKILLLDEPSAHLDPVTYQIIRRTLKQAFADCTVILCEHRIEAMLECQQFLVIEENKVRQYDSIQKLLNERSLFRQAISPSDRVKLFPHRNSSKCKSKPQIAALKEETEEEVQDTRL

Row | SMILES | EC50 [nM] | Max. Activity
1 | CC1(C)C[C@@H]2CCCNc3cccc(n3)S(=O)(=O)NC(=O)c3ccc(N4CCN(CCCC5(C(F)(F)F)CC5)C4=O)nc3N1C2 [Compound 205, (14S)-12,12-Dimethyl-8-(2-oxo-3-{3-[1-(trifluoromethyl)cyclopropyl]propyl}imidazolidin-1-yl)-2λ^6-thia-3,9,11,18,23-pentaazatetracyclo[17.3.1.111,14.05,10]tetracosa-1(22),5,7,9,19(23),20-hexaene-2,2,4-trione] | < 1000 | +++ (+++ is >60%)
2 | CC1(C)C[C@H]2CCCCn3ccc(n3)S(=O)(=O)NC(=O)c3ccc(-n4ccc(OCCC5(C(F)(F)F)CC5)n4)nc3N1C2 (single isomer, unassigned) [Compound 45, 21,21-dimethyl-4-(3-{2-[1-(trifluoromethyl)cyclopropyl]ethoxy}-1H-pyrazol-1-yl)-10λ^6-thia-1,3,9,14,23-pentaazatetracyclo[17.2.1.111,14.02,7]tricosa-2,4,6,11(23),12-pentaene-8,10,10-trione] | < 1000 | +++ (+++ is >60%)
3 | C[C@@H]1CC[C@H]2CN(c3nc(N4CCN(CCC(C)(C)C)C4=O)ccc3C(=O)NS(=O)(=O)c3cccc(n3)N1)C(C)(C)C2 (single isomer, unassigned) [Compound 219, 8-[3-(3,3-dimethylbutyl)-2-oxoimidazolidin-1-yl]-12,12,17-trimethyl-2λ^6-thia-3,9,11,18,23-pentaazatetracyclo[17.3.1.111,14.05,10]tetracosa-1(22),5,7,9,19(23),20-hexaene-2,2,4-trione] | < 1000 | ++ (++ is 30-60%)
4 | CC(C)(C)CCCN1CCN(c2ccc3c(n2)N2C[C@@H](CCCNc4cccc(n4)S(=O)(=O)NC3=O)CC2(C)C)C1=O [Compound 193, (14S)-8-[3-(4,4-dimethylpentyl)-2-oxoimidazolidin-1-yl]-12,12-dimethyl-2λ^6-thia-3,9,11,18,23-pentaazatetracyclo[17.3.1.111,14.05,10]tetracosa-1(22),5,7,9,19(23),20-hexaene-2,2,4-trione] | < 1000 | +++ (+++ is >60%)
5 | CC1(C)C[C@@H]2CN1c1nc(-n3ccc(OCCCC4(C(F)(F)F)CC4)n3)ccc1C(=O)NS(=O)(=O)c1cccc(n1)NCCO2 (single isomer, unassigned) [Compound 160, 12,12-dimethyl-8-(3-{3-[1-(trifluoromethyl)cyclopropyl]propoxy}-1H-pyrazol-1-yl)-15-oxa-2λ^6-thia-3,9,11,18,23-pentaazatetracyclo[17.3.1.111,14.05,10]tetracosa-1(23),5,7,9,19,21-hexaene-2,2,4-trione] | < 1000 | +++ (+++ is >60%)
6 | CC1(C)C[C@@H]2CCCNc3cccc(n3)S(=O)(=O)NC(=O)c3ccc(-n4ccc(OCCC5(C(F)(F)F)CC5)n4)nc3N1C2 [Compound 14, (14S)-12,12-dimethyl-8-(3-{2-[1-(trifluoromethyl)cyclopropyl]ethoxy}-1H-pyrazol-1-yl)-2λ^6-thia-3,9,11,18,23-pentaazatetracyclo[17.3.1.111,14.05,10]tetracosa-1(23),5,7,9,19,21-hexaene-2,2,4-trione] | < 1000 | +++ (+++ is >60%)
7 | Cc1ccc2nc1NCCC[C@H]1CN(c3nc(-n4ccc(OCCC5(C(F)(F)F)CC5)n4)ccc3C(=O)NS2(=O)=O)C(C)(C)C1 (single isomer, unassigned) [Compound 114, 12,12,20-trimethyl-8-(3-{2-[1-(trifluoromethyl)cyclopropyl]ethoxy}-1H-pyrazol-1-yl)-2λ^6-thia-3,9,11,18,23-pentaazatetracyclo[17.3.1.111,14.05,10]tetracosa-1(23),5(10),6,8,19,21-hexaene-2,2,4-trione] | > 3000 | + (+ is <30%)
8 | CC1(C)C[C@H]2CCCCNc3ccc(cn3)S(=O)(=O)NC(=O)c3ccc(-n4ccc(OCCC5(C(F)(F)F)CC5)n4)nc3N1C2 (single isomer, unassigned) [Compound 68, 12,12-dimethyl-8-(3-{2-[1-(trifluoromethyl)cyclopropyl]ethoxy}-1H-pyrazol-1-yl)-2λ^6-thia-3,9,11,19,21-pentaazatetracyclo[18.2.2.111,14.05,10]pentacosa-1(23),5,7,9,20(24),21-hexaene-2,2,4-trione] | < 1000 | ++ (++ is 30-60%)
9 | CC1(C)C[C@@H]2CCCNc3cccc(n3)S(=O)(=O)NC(=O)c3ccc(N4CCC5(CCCCC5)C4=O)nc3N1C2 [Compound 222, (14S)-12,12-dimethyl-8-{1-oxo-2-azaspiro[4.5]decan-2-yl}-2λ^6-thia-3,9,11,18,23-pentaazatetracyclo[17.3.1.111,14.05,10]tetracosa-1(22),5,7,9,19(23),20-hexaene-2,2,4-trione] | < 1000 | ++ (++ is 30-60%)
10 | CC1(C)C[C@H]2CCCCn3ccc(n3)S(=O)(=O)NC(=O)c3ccc(-n4ccc(OCCCC5(C(F)(F)F)CC5)n4)nc3N1C2 (single isomer, unassigned) [Compound 276, 21,21-dimethyl-4-(3-{3-[1-(trifluoromethyl)cyclopropyl]propoxy}-1H-pyrazol-1-yl)-10λ^6-thia-1,3,9,14,23-pentaazatetracyclo[17.2.1.111,14.02,7]tricosa-2,4,6,11(23),12-pentaene-8,10,10-trione] | < 1000 | ++ (++ is 30-60%)
11 | Cc1ccc2nc1NCCC[C@H]1CN(c3nc(-n4ccc(OCCC5(C(F)(F)F)CC5)n4)ccc3C(=O)NS2(=O)=O)C(C)(C)C1 (single isomer, unassigned) [Compound 115, 12,12,20-trimethyl-8-(3-{2-[1-(trifluoromethyl)cyclopropyl]ethoxy}-1H-pyrazol-1-yl)-2λ^6-thia-3,9,11,18,23-pentaazatetracyclo[17.3.1.111,14.05,10]tetracosa-1(23),5(10),6,8,19,21-hexaene-2,2,4-trione] | < 1000 | +++ (+++ is >60%)
12 | CC1(C)C[C@H]2CCCNc3cccc(n3)S(=N)(=O)NC(=O)c3ccc(-n4ccc(OCCC5(C(F)(F)F)CC5)n4)nc3N1C2 (single isomer, unassigned) [Compound 272, 2-imino-12,12-dimethyl-8-(3-{2-[1-(trifluoromethyl)cyclopropyl]ethoxy}-1H-pyrazol-1-yl)-2λ^6-thia-3,9,11,18,23-pentaazatetracyclo[17.3.1.111,14.05,10]tetracosa-1(23),5,7,9,19,21-hexaene-2,4-dione] | > 3000 | + (+ is <30%)
13 | Cc1c2cnn1CCCC1CN(c3nc(-n4ccc(OCC(C)(C)C(F)(F)F)n4)ccc3C(=O)NS2(=O)=O)C(C)(C)C1 (single isomer, unassigned) [Compound 286, 20,20,22-trimethyl-4-[3-(3,3,3-trifluoro-2,2-dimethylpropoxy)-1H-pyrazol-1-yl]-10λ^6-thia-1,3,9,13,14-pentaazatetracyclo[16.2.1.111,14.02,7]docosa-2,4,6,11(22),12-pentaene-8,10,10-trione] | < 1000 | + (+ is <30%)
14 | CC1(C)C[C@@H]2CCCNc3cccc(n3)S(=O)(=O)NC(=O)c3ccc(N4CCC(OCCC(C)(C)C(F)(F)F)C4=O)nc3N1C2 (stereo partly drawn) [Compound 237, (14S)-12,12-dimethyl-8-[2-oxo-3-(4,4,4-trifluoro-3,3-dimethylbutoxy)pyrrolidin-1-yl]-2λ^6-thia-3,9,11,18,23-pentaazatetracyclo[17.3.1.111,14.05,10]tetracosa-1(22),5,7,9,19(23),20-hexaene-2,2,4-trione] | < 1000 | +++ (+++ is >60%)
15 | Cc1cn2nc1S(=O)(=O)NC(=O)c1ccc(-n3ccc(OCCC(C4CC4)C4CC4)n3)nc1N1C[C@H](CCC2)CC1(C)C (single isomer, unassigned) [Compound 202, 4-[3-(3,3-dicyclopropylpropoxy)-1H-pyrazol-1-yl]-12,20,20-trimethyl-10λ^6-thia-1,3,9,14,22-pentaazatetracyclo[16.2.1.111,14.02,7]docosa-2(7),3,5,11(22),12-pentaene-8,10,10-trione] | < 1000 | ++ (++ is 30-60%)
16 | CC1(C)C[C@H]2CCCn3ccc(n3)S(=O)(=O)NC(=O)c3ccc(N4CC[C@H](CCCC5(C(F)(F)F)CC5)C4=O)nc3N1C2 (single isomer, unassigned) [Compound 181, 20,20-Dimethyl-4-(2-oxo-3-{3-[1-(trifluoromethyl)cyclopropyl]propyl}pyrrolidin-1-yl)-10λ^6-thia-1,3,9,14,22-pentaazatetracyclo[16.2.1.111,14.02,7]docosa-2,4,6,11(22),12-pentaene-8,10,10-trione] | 1000 to 3000 | ++ (++ is 30-60%)
17 | CC1(C)C[C@@H]2CCCNc3cccc(n3)S(=O)(=O)NC(=O)c3ccc(N4CC[C@H](CCC5C6(CC6)C56CC6)C4=O)nc3N1C2 (single isomer, unassigned) [Compound 177] | < 1000 | ++ (++ is 30-60%)
18 | CC1CN(c2ccc3c(n2)N2C[C@@H](CCCNc4cccc(n4)S(=O)(=O)NC3=O)CC2(C)C)C(=O)C1CCC(C)(C)C (stereo partly drawn) [Compound 97, (14S)-8-[3-(3,3-dimethylbutyl)-4-methyl-2-oxopyrrolidin-1-yl]-12,12-dimethyl-2λ^6-thia-3,9,11,18,23-pentaazatetracyclo[17.3.1.111,14.05,10]tetracosa-1(22),5,7,9,19(23),20-hexaene-2,2,4-trione] | < 1000 | +++ (+++ is >60%)
19 | CC1(C)CC[C@H]2CCCNc3cccc(n3)S(=O)(=O)NC(=O)c3ccc(-n4ccc(OCC5C6(CC6)C56CC6)n4)nc3N21 (single isomer, unassigned) [Compound 125, 8-[3-({Dispiro[2.0.2.1]heptan-7-yl}methoxy)-1H-pyrazol-1-yl]-12,12-dimethyl-2λ^6-thia-3,9,11,19,24-pentaazatetracyclo[18.3.1.05,10.011,15]tetracosa-1(23),5(10),6,8,20(24),21-hexaene-2,2,4-trione] | < 1000 | + (+ is <30%)
